# Measurements published in US20140303242A1, “Sparstolonin B Based Pharmaceutical Agent to Treat Pathological Angiogensis” (University of South Carolina, priority 2013, published 2014).
# Key:
# HUVECs [1] = experiment: Live/Dead cell viability assay; assay type: cell-based; conditions: HUVECs, 1, 10, 100 μM, 4 h
# Experimental: A Live/Dead assay (Invitrogen, Eugene, Oreg.) was utilized to investigate the effect of SsnB on cell viability. The Matrigel tube formation experiment was repeated with HUVECs in chamber slides at a concentration of 20,000 cells per well. The cells were treated with SsnB (1, 10, or 100 μM) or Vehicle Control (0.1% DMSO) as described above. After four hours of incubation, the slides were removed. A chamber slide containing HUVECs treated with 70% methanol for 30 minutes was used as a control for dead cell staining. The slides were aspirated and washed with PBS, and EthD-1 and calcein AM were added to each well. The plates were incubated in the dark, and images were taken with a light microscope at 10× magnification.
# HCAECs = experiment: Real time RT-PCR gene expression (HCAECs); assay type: cell-based, human; conditions: 24 h
# Experimental: After a careful analysis of the microarray data, key genes (CDC6, CCNE2, KITLG, ALDH3A1, CCNB1, CDC2, HMMR, DIAPH3, ANLN, and CDKN3) were chosen for quantitative real-time PCR (qRT-PCR) to verify the gene expression results. HCAECs and HUVECs were exposed to SsnB or vehicle control for 24 h (as previously described in the microarray section). For RT-PCR, RNA was isolated from the cells with the RNeasy Mini kit as described previously. After forward and reverse primer kits (Qiagen, Valencia, Calif.) were selected, the RNA was amplified. The one-step RT-PCR reactions were completed on the BioRad iCycler thermal cycler system in the Instrumentation Resource Facility at the USC School of Medicine. The expression levels were normalized, and RNA levels were quantified.
# (§1) Microarray data analysis, including data normalization (robust multi-array average), identification of differentially expressed genes (comparative analyses with dChip software), and heat map construction, was carried out to determine how SsnB affects gene expression and affected pathways (n=2 for HUVECs and n=3 for HCAECs). After a careful analysis of the microarray data, several key genes were chosen for qRT-PCR to verify the gene expression results. The genes were chosen based on the following criteria: fold change ≧2, p<0.05, unpaired t-test with a false discovery rate approximating 0%, appearing in both data sets (HUVECs and HCAECs), and gene function relating to cell proliferation and/or angiogenesis. For qRT-PCR, the expression levels were normalized to the housekeeping gene GAPDH, and RNA levels were compared between groups with the ΔΔCt method.
# monocytic THP-1 cells = experiment: Cytotoxicity on monocytic THP-1 cells; assay type: cell-based; conditions: concentrations up to 100 μM
# [2] = test system: human aortic smooth muscle cells; experiment: Cytotoxicity on human aortic smooth muscle cells; assay type: cell-based; conditions: concentrations up to 100 μM
# HUVECs [3] = experiment: Microarray gene expression analysis (HUVECs); assay type: cell-based, human
# Experimental: Confluent plates (100×20 mm polystyrene, tissue culture-treated petri plates coated with 0.1% gelatin, 75% confluent) of HUVECs and HCAECs (four plates for HUVECs, n=2, and six plates for HCAECs, n=3) were chosen for the microarray experiments. Half of the plates received complete growth medium (10% fetal bovine serum with endothelial mitogen) containing vehicle control (0.1% DMSO), and the remaining plates received complete growth medium containing 100 μM SsnB. The plates were incubated for 24 h to allow SsnB to have an effect on cellular gene expression. Following incubation, RNA isolation was completed with the RNeasy Mini kit from Qiagen. The cells were lysed, and RNA was isolated by using the RNeasy spin columns and following the protocol provided by Qiagen. Purified RNA was sent to the Medical University of South Carolina Proteogenomics Facility for microarray analysis. The GeneChip Human Genome U133 Plus 2.0 Array was utilized to track changes in gene expression due to SsnB treatment. Complete data was uploaded to the NCBI Gene Expression Omnibus database (accession number GSE44598).
# as §1
# HUVECs [4] = experiment: Cell cycle analysis, propidium iodide flow cytometry; assay type: cell-based, human
# Experimental: Cell cycle analysis was performed using propidium iodide staining and flow cytometry. HUVECs (approximately 75% confluent) cultured in 6 well polystyrene culture plates coated with 0.1% gelatin were serum starved for 24 hours in low serum medium containing 0.5% fetal bovine serum and no endothelial cell mitogen to synchronize the cells in the G1/S phase. After 24 hours, the low serum medium was replaced with treatments of either 100 μM SsnB or vehicle control (0.1% DMSO) diluted in complete growth medium (10% fetal bovine serum with endothelial cell mitogen) in triplicate. The treated cells were incubated for 24, 30, and 36 hours. After incubation, the cells were trypsinized, transferred to 5 ml polysytrene round bottom tubes (12×75 mm), and centrifuged. The medium was aspirated, and the cells were washed with PBS. After fixing the cells with ice-cold 70% ethanol for 15 min, the cells were centrifuged and stained with propidium iodide for 30 min. The samples were then analyzed with a flow cytometer (Beckman Coulter FC500). The unstained and stained cell groups were used to calibrate the settings on the flow cytometer. The data were collected and analyzed with ModFit software.
# [5] = SsnB vs vehicle control, normalized to GAPDH
# [6] = HUVECs, 100 μM SsnB vs vehicle control, 24 h
# [7] = microarray data, cell type not specified
# [8] = synchronized HUVECs, 100 μM SsnB, 24, 30 and 36 hours, vs vehicle control
smiles,measurement,setting,value
"O=c1occ2c3c(ccc(O)c13)Oc1ccc(O)cc1-2 [SsnB, Sparstolonin B]",cell viability (live/dead assay),HUVECs [1],no effect on cell viability
same,ALDH3A1 expression (qRT-PCR),HCAECs,4620 % of controls
same,CCNE2 gene expression after SsnB exposure (qRT-PCR),HCAECs,57 % of controls
same,CDC6 gene expression after SsnB exposure (qRT-PCR),HCAECs,14 % of controls
same,KITLG expression (qRT-PCR),HCAECs,260 % of controls
same,ALDH3A1 PCR 2^ΔΔCt value,HCAECs; [5],46.2
same,ANLN PCR 2^ΔΔCt value,HCAECs; [5],0.13
same,CCNB1 PCR 2^ΔΔCt value,HCAECs; [5],0.13
same,CCNE2 PCR 2^ΔΔCt value,HCAECs; [5],0.57
same,CDC2 PCR 2^ΔΔCt value,HCAECs; [5],0.17
same,CDC6 PCR 2^ΔΔCt value,HCAECs; [5],0.14
same,CDKN3 PCR 2^ΔΔCt value,HCAECs; [5],0.22
same,DIAPH3 PCR 2^ΔΔCt value,HCAECs; [5],0.26
same,HMMR PCR 2^ΔΔCt value,HCAECs; [5],0.062
same,KITLG PCR 2^ΔΔCt value,HCAECs; [5],2.6
same,cytotoxic effects,monocytic THP-1 cells,does not exhibit cytotoxic effects
same,cytotoxic effects,[2],does not exhibit cytotoxic effects
same,ALDH3A1 Microarray Fold change value,HUVECs [3]; [6],7.7
same,ANLN Microarray Fold change value,HUVECs [3]; [6],0.09
same,CCNB1 Microarray Fold change value,HUVECs [3]; [6],0.19
same,CCNE2 Microarray Fold change value,HUVECs [3]; [6],0.24
same,CDC2 Microarray Fold change value,HUVECs [3]; [6],0.08
same,CDC6 Microarray Fold change value,HUVECs [3]; [6],0.23
same,CDKN3 Microarray Fold change value,HUVECs [3]; [6],0.19
same,DIAPH3 Microarray Fold change value,HUVECs [3]; [6],0.34
same,HMMR Microarray Fold change value,HUVECs [3]; [6],0.11
same,KITLG Microarray Fold change value,HUVECs [3]; [6],6.2
same,number of differentially expressed genes in response to SsnB exposure,"HUVECs [3]; HUVECs, 100 μM, 24 h, fold change ≧2, p<0.05",916 genes
same,KIF18A expression in microarray data,HUVECs [3]; [7],downregulated
same,TACC3 expression in microarray data,HUVECs [3]; [7],downregulated
same,aurora kinases (AURKA and AURKB) expression in microarray data,HUVECs [3]; [7],downregulated
same,G2/M blockage,HUVECs [4]; non-synchronized (no serum starvation) HUVECs,G2/M blockage was observed
same,percentage of cells in the G1 phase,HUVECs [4]; [8],increase
same,percentage of cells in the S phase,HUVECs [4]; [8],decrease
